Assay results taken from patent publication US12527880B2, “Cyanine-based telodendrimers and uses for treating cancer” (priority 2018, dated 2026).

What was measured:
[1] = test system: OSC-3 oral cancer cells
[2] = In vivo blood elimination kinetics; design: species or system female Sprague-Dawley rats
[3] = female, Sprague-Dawley, rat, blood, iv, 5 mg kg^−1, rats

Row | Compound | cell viability [1] [%] | time to clearance from circulation ([2]; after intravenous administration) [min] | AUC [2, 3] [ng·h/mL] | half-life [2, 3] [min]
1 | COc1cccc2c1C(=O)c1c(O)c3c(c(O)c1C2=O)C[C@@](O)(C(=O)CO)C[C@@H]3O[C@H]1C[C@H](N)[C@H](O)[C@H](C)O1 [free DOX, doxorubicin] | 61 | – | – | –
2 | CC1(C)C(/C=C/C=C/C=C/C=C2\N(CCCCS(=O)(=O)O)c3ccc4ccccc4c3C2(C)C)=[N+](CCCCS(=O)(=O)[O-])c2ccc3ccccc3c21 [free ICG, indocyanine green] | – | ≤ 30 | 12100 | 5.22
